Like-named read-outs stand apart in the source and are kept apart here.
Assays:
[1] = In vivo brain tissue distribution test after oral administration; details: mouse; for Kp / Cmax / Tmax / AUC(0-inf) / AUC(0-t) / MRT inf / half-life: Hsd:ICR(CD-1R); for Kp: brain/plasma, po, 25 mg/kg, PO; for AUC(0-inf): read-out: AUCinf, Mean; for AUC(0-t): read-out: AUClast, Mean; for MRT inf: read-out: MRTinf, Mean; for half-life: read-out: t1/2, Mean (converted)
Procedure: • Test drug: Compound 11 • Excipient: 20% hydroxypropyl-β-cyclodextrin aqueous solution to which 1% DMSO was added 2.2. Experimental system • Mouse, Hsd:ICR(CD-1R), SPF […] (7 weeks old at the time of administration)
After obtaining the mouse, the mouse was quarantined and acclimatized for 2 weeks, and used in the experiment. An administration dose was 25 mg/kg. A dosage for each individual was calculated based on the weight after fasting for 15 hours (on the day of administration), and the drug was orally administered once using a disposable syringe (1 mL) with a zonde for oral administration attached.
After respiratory anesthesia, blood was collected by heart blood collection with a 1 mL syringe, placed in a K2-EDTA-treated tube, and centrifuged at 8,000 RPM at 4° C. for 20 minutes, and plasma was collected from a supernatant. Heat perfusion was performed on animals after blood collection, a brain tissue was harvested, and olfactory bulb, cerebellum, pones, and medulla oblongata were removed from the harvested brain tissue. The collected plasma and brain tissue were frozen and stored at −80° C. until analysis.
In order to secure a sufficient amount of analysis sample, a mixed (pulled) sample of brain tissue and blood secured from two individuals was used (securing three repetitive samples from 6 animals in one collection). Blood plasma and brain tissue were collected from a mouse of the same week of age to which the compound was not administered, and used as a blank blood plasma and a blank tissue in the material concentration analysis.
190 μL of acetonitrile was added to 10 μL of a blood plasma sample including 200 ng/mL of the internal standard material and vortexed at 2,500 RPM for 60 seconds. Thereafter, centrifugation was performed at 12,000 RPM for 5 minutes, and 50 μL of a supernatant was taken and mixed with 50 μL of acetonitrile. 2 μL thereof was injected into LC-MS/MS.
The brain tissue was weighed, third distilled water equivalent to 4 times (w/v=¼) the weight was added, and homogenization was performed using a homogenizer. 10 μL of the homogenized tissue mixed solution was taken, 190 μL of acetonitrile including 50 ng/mL of the internal standard material was added, and vortexing was performed at 2,500 RPM for 60 seconds. Thereafter, centrifugation was performed at 12,000 RPM for 10 minutes, and 2 μL of a supernatant was taken and injected into LC-MS/MS.
PK parameter was calculated with a Non-compartmental analysis model using a PKSolver2.0 software.

[2] = system: SREBP; assay: Cell-based assay system using a 6xSRE reporter vector (copGFP intensity) in HOG-GSC-6xSRE-copGFP_HIGH cells; parameters: dose or concentration left out as unconfirmed; details: copGFP intensity normalized to DMSO control = 1, 72 hours
Text: First, as shown in (a) of FIG. 1, SRE(5′-ATCACCCCAC-3′) 6 copies which are DNA seCuences to which a transcription factor, SREBP active form bonds were inserted into a minimal CMV promoter 5′ front end of a pGreenfire-Lenti-reporter vector to produce a 6xSRE reporter vector. The 6xSRE reporter vector is a vector system in which a minimal CMV promoter is activated only when SREBP in an activated form bonds to 6xSRE and copGFP is expressed, and after the vector was introduced to HOG-GSC which is a brain tumor stem cell, separation into a GFP high cell and a GFP low cell through FACS sorting was performed. Each of SREBP1a and SREBP1c in an active form was overexpressed in separated GFP-low cells (b of FIG. 1), and it was measured therefrom whether the expression amount of GFP was increased. As a result, it was confirmed that the overexpression of SREBP1a and SREBP1c active forms increased GFP expression by 43.30% and 93.49%, in separated GFP-low cells (c of FIG. 1). The separated GFP-high cells were treated with each of fatostatin and FGH10019 known to inhibit activity of DMSO and SREBP which was a control group to measure a change in the expression amount of GFP, and, as a result, it was confirmed that when treated with known materials, fatostatin and FGH10019, the expression of GFP was inhibited by up to 50% (d of FIG. 1).
HOG-GSC-6xSRE-copGFP_HIGH cells were dispensed into a 96-well plate (Corning) at 5000/well, each well was treated […], and then all wells were photographed every 3 hours for 72 hours in an incubator (ThermoFisher) at […], 5% CO2, using real-time cell imaging equipment (Incucyte) to photograph changes in copGFP intensity.

Kp ([1]; read-out: Brain-to-plasma ratio by AUC (brain/plasma)): 0.543
Kp ([1]; read-out: Brain-to-plasma ratio by concentration (brain/plasma), Average): 0.47
Kp ([1]; read-out: Brain-to-plasma ratio by concentration (brain/plasma), Max): 0.777
Cmax ([1]; Brain (25 mg/kg, PO)): 12600 ng/mL
Tmax ([1]; Brain (25 mg/kg, PO)): 3 h
AUC(0-inf) ([1]; Brain (25 mg/kg, PO)): 96.8 µg·h/mL
AUC(0-t) ([1]; Brain (25 mg/kg, PO)): 96 µg·h/mL
MRT inf ([1]; Brain (25 mg/kg, PO)): 6 h
half-life ([1]; Brain (25 mg/kg, PO)): 2.83 h
Cmax ([1]; Plasma (25 mg/kg, PO)): 20400 ng/mL
Tmax ([1]; Plasma (25 mg/kg, PO)): 1.33 h
AUC(0-inf) ([1]; Plasma (25 mg/kg, PO)): 180 µg·h/mL
AUC(0-t) ([1]; Plasma (25 mg/kg, PO)): 177 µg·h/mL
MRT inf ([1]; Plasma (25 mg/kg, PO)): 6.95 h
half-life ([1]; Plasma (25 mg/kg, PO)): 3.08 h
Clobs, Mean ([1]; Plasma (25 mg/kg, PO)): 2.320 mL/min/kg
Vzobs, Mean ([1]; Plasma (25 mg/kg, PO)): 0.617 L/kg
Structure (SMILES): CC(C)(C)c1ccc(-c2cc(/C=C3\SC(=O)NC3=O)ccn2)cc1 [Compound 11, (Z)-5-((2-(4-(tert-butyl)phenyl)pyridin-4-yl)methylene)thiazolidine-2,4-dione]
activity [2]: 4.6%

From patent publication US20250066347A1, “SUBSTITUTED THIAZOLIDINEDIONE DERIVATIVE COMPOUND, AND PHARMACEUTICAL COMPOSITION FOR PREVENTING OR TREATING CANCER, COMPRISING SAME” (MEDIFIC, INC., priority 2021, published 2025)
